From ChEMBL document CHEMBL2028040, “Malaria Box”
pEC50, pIC50: −log10 of the molar value.

Key:
Leishmania infantum = test: MMV: Inhibition of Leishmania infantum (MHOM/MA/BE/67) in vitro.; format: functional, organism-based
[1] = MMV: Cytotoxicity against human fibroblasts (MRC-5) cells.; conditions: MRC-5 cells (human fibroblasts)
Plasmodium falciparum [2] = test: MMV: Inhibition of Plasmodium falciparum 3D7 at 5uM compound concentration.; format: functional
[3] = system: Trypanosoma brucei rhodesiense; test: MMV: Inhibition of Trypanosoma brucei rhodesiense (STIB 900) (HAT in vitro).; format: functional, organism-based
Plasmodium falciparum [4] = test: MMV: Inhibition of Plasmodium falciparum K1 (EC50).; format: functional, organism-based
Plasmodium falciparum [5] = test: MMV: Inhibition of Plasmodium falciparum 3D7 (EC50).; format: functional, organism-based
[6] = system: Trypanosoma brucei brucei; test: MMV: Inhibition of Trypanosoma brucei brucei (Squib 427) (HAT in vitro).; format: functional, organism-based
Trypanosoma cruzi = test: MMV: Inhibition of Trypanosoma cruzi (Tulahuen C4 LacZ) (Chagas in vitro).; format: functional, organism-based

pIC50 (Leishmania infantum)	pIC50 [3]	pEC50 (Plasmodium falciparum [4])	pEC50 (Plasmodium falciparum [5])	pIC50 [6]	pIC50 (Trypanosoma cruzi)	SMILES	pIC50 [1]	inhibition at 5 µM (Plasmodium falciparum [2]) [%]
5.40	6.60	6.07	5.97	6.07	5.36	OC(CNCc1ccccc1)Cn1c2ccccc2c2ccccc21 (stereo not given)	4.79	95
4.79	5.41	6.00	7.09	5.42	4.78	CNCCCNc1ccnc2cc(Cl)ccc12	< 4.49	98
5.32	5.39	6.28	6.29	5.40	5.41	COc1ccc(C(=O)NC(c2ccc(Cl)cc2Cl)c2cc(Cl)c3cccnc3c2O)cc1 (stereo not given)	5.11	96
4.60	5.39	6.08	6.32	5.00	4.79	COc1ccccc1N1C(=N)SC(=Cc2ccc(OCc3ccccc3F)cc2)C1=O	< 4.49	95
5.80	5.76	6.14	6.49	5.38	< 4.49	COC(=O)c1ccc(C2C3=C(O)CC(c4ccc(F)cc4)CC3=Nc3ccccc3N2C(=O)c2ccccc2)cc1 (stereo not given)	< 4.49	98
4.99	6.00	6.34	5.90	6.00	4.98	CC(C)c1ccc(CNCC(O)c2ccccc2)cc1 (stereo not given)	4.89	96
4.76	4.80	8.17	7.65	4.81	< 4.49	Oc1ccccc1CNCC12CC3CC(CC(C3)C1)C2	< 4.49	96
5.00	5.39	6.27	6.07	4.82	4.81	O=c1cc(NC2CCN(CCCc3ccccc3)CC2)c2cc(Cl)ccc2o1	< 4.49	97
4.80	4.94	6.73	6.20	4.96	4.93	CCN(Cc1ccccc1)C1CCN(Cc2cc(Br)ccc2O)CC1	< 4.49	97
4.87	5.41	6.28	6.07	5.49	4.84	CCCCNCC(O)(c1ccc(Cl)cc1)c1ccc(Cl)cc1	< 4.49	97
4.79	5.45	6.28	6.16	4.92	5.36	Cc1cc(Nc2ccc(OCc3ccccc3)cc2)nc2cc(O)ccc12	4.85	96
< 4.49	5.64	5.89	5.85	5.72	5.34	Nc1ccc(-c2nc3cc(Cc4ccc5[nH]c(-c6ccc(N)cc6)nc5c4)ccc3[nH]2)cc1	4.94	100
< 4.49	< 4.49	6.07	6.06	< 4.49	< 4.49	CC(=O)Nc1nnc(SCc2c(C)cc(C(C)(C)C)cc2C)s1	< 4.49	96
4.79	4.86	6.16	6.77	4.86	4.94	COc1ccc(C=C2SC(=N)N(c3ccccc3OC)C2=O)cc1	5.35	97
4.76	5.34	6.19	5.88	4.96	< 4.49	CCOc1cc2c(cc1OCC)C(c1cc(Cl)c(O)c(OCC)c1)NCC2 (stereo not given)	< 4.49	96
